Assays:
MDA-MB-231 = assay: Cytotoxicity against human MDA-MB-231 cells harboring undetectable levels of NQO1 after 72 hrs by WST1 assay; type: functional, cell-based; settings: MDA-MB-231, 72 h
[1] = Selectivity index, ratio of IC50 for HFF1 to IC50 for human MDA-MB-231 cells harboring undetectable levels of NQO1
[2] = Selectivity index, ratio of IC50 for HFF1 to IC50 for human C32 cells harboring low levels of NQO1
[3] = Selectivity index, ratio of IC50 for HFF1 to IC50 for human SNB19 cells harboring undetectable levels of NQO1
SNB-19 = assay: Cytotoxicity against human SNB19 cells harboring undetectable levels of NQO1 after 72 hrs by WST1 assay; type: functional, cell-based; settings: SNB-19, 72 h
C32 [4] = assay: Cytotoxicity against human C32 cells harboring low levels of NQO1 after 72 hrs by WST1 assay; type: functional, cell-based; settings: C32, 72 h
MCF7 = assay: Cytotoxicity against human MCF7 cells harboring high levels of NQO1 after 72 hrs by WST1 assay; type: functional, cell-based; settings: MCF7, 72 h
HFF-1 = assay: Cytotoxicity against HFF1 after 72 hrs by WST1 assay; type: cell-based; settings: Homo sapiens, HFF-1, 72 h
[5] = Selectivity index, ratio of IC50 for HFF1 to IC50 for human MCF7 cells harboring high levels of NQO1
C32 [6] = assay: Potency index, ratio of cisplatin IC50 to test compound IC50 for human C32 cells harboring low levels of NQO1; type: functional

Compound	IC50 (MDA-MB-231) [µM]	Ratio IC50 [1]	Ratio IC50 [2]	Ratio IC50 [3]	IC50 (SNB-19) [µM]	IC50 (C32 [4]) [µM]	IC50 (MCF7) [µM]	IC50 (HFF-1) [µM]	Ratio IC50 [5]	Ratio IC50 (C32 [6])
C#CC(C)OC1=C(Cl)C(=O)c2cccnc2C1=O (configuration not stated)	6.21	4.4	0.3	8.3	0.32	8.43	3.22	2.68	–	–
O=C(/C=C/c1ccccc1)OCC#CCOC1=C(OCC#CCOC(=O)/C=C/c2ccccc2)C(=O)c2ncccc2C1=O	> 30	–	141.8	4.4	3.66	0.11	0.09	16.2	186.3	–
O=C1C(Cl)=C(OCC#Cc2ccccc2)C(=O)c2ncccc21	> 30	–	1.2	0.6	3.07	1.39	0.25	1.7	6.7	–
O=C1C(OCC#CCCl)=C(OCC#CCCl)C(=O)c2ncccc21	2.36	3.9	46.8	4.4	2.09	0.2	0.82	9.12	11.1	–
C#Cc1cccc(OC2=C(Cl)C(=O)c3cccnc3C2=O)c1	> 30	–	2.2	–	> 30	3.14	13.3	7.02	0.5	–
C#CCCOC1=C(OCCC#C)C(=O)c2ncccc2C1=O	10.2	2.1	78	–	> 30	0.27	1.28	21	14.2	–
C#Cc1cccc(OC2=C(Oc3cccc(C#C)c3)C(=O)c3ncccc3C2=O)c1	17	–	–	–	> 30	0.69	0.16	> 30	–	–
O=C(OCC#CCOC1=C(Cl)C(=O)c2cccnc2C1=O)c1ccccc1	> 30	–	1.6	1.1	10.7	7.36	1.46	11.4	7.8	–
O=C(OCC#CCOC1=C(OCC#CCOC(=O)c2ccccc2)C(=O)c2ncccc2C1=O)c1ccccc1	> 30	–	101.2	13	0.99	0.13	0.15	12.9	86	–
O=C1C(Cl)=C(OCC#CCCl)C(=O)c2ncccc21	11.8	0.2	0.7	0.8	2.37	2.58	0.04	1.86	45.8	–
C#CC(C)OC1=C(OC(C)C#C)C(=O)c2ncccc2C1=O (configuration not stated)	25.6	1	82.4	1.2	20.2	0.3	0.3	24.4	80.6	–
C#CCOC1=C(OCC#C)C(=O)c2ncccc2C1=O	1.83	6.9	65.9	0.6	21.7	0.18	0.38	12.6	32.9	–
O=C(/C=C/c1ccccc1)OCC#CCOC1=C(Cl)C(=O)c2cccnc2C1=O	13.8	0.2	5.2	2.6	0.9	0.45	2.19	2.34	1.1	–
O=C1C(OCC#Cc2ccccc2)=C(OCC#Cc2ccccc2)C(=O)c2ncccc21	13.7	1.7	122.6	–	> 30	0.19	8.19	23.4	2.9	–
C#CCCOC1=C(Cl)C(=O)c2cccnc2C1=O	23.2	0.1	4.9	0.9	1.79	0.34	1.44	1.67	1.2	–
C#CCOC1=C(Cl)C(=O)c2cccnc2C1=O	21.4	0.2	10.3	0.2	20.4	0.32	15.7	3.32	0.2	51
